Test results published in paper PMC11059360 (Nature Communications, 2024).

Target: T1, SLC26A2 (Homo sapiens, UniProt P50443)
T1 construct: full length, N-terminal His-tag and thrombin site (tag digested with thrombin for cryo-EM); Expi293F, BacMam; LMNG; homodimer; model covers residues 52-724
T1 sequence (P50443 1-739): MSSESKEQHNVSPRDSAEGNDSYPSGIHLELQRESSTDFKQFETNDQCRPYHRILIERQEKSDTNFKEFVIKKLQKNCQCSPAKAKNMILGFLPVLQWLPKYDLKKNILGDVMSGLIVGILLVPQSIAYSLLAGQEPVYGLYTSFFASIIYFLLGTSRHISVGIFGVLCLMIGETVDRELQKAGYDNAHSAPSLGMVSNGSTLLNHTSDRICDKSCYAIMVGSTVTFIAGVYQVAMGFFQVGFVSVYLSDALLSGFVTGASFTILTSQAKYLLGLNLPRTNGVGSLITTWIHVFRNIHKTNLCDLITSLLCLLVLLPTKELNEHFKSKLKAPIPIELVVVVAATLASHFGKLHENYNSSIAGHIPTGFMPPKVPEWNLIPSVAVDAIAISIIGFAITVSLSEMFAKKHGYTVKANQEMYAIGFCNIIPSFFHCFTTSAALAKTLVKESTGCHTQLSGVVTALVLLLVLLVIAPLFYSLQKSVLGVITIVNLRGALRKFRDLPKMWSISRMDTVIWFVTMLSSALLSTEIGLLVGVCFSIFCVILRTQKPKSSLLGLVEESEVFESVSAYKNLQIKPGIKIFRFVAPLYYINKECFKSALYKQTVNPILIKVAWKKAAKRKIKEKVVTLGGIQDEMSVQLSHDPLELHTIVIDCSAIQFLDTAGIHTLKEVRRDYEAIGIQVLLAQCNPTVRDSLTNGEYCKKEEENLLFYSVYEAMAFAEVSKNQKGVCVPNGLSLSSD
Assay: cryo-EM structure of the complex
Type: binding
Details: pH 7.5, LMNG

Structure (SMILES)	cryo-EM structure of the complex (50 mM K2C2O4, no NaCl, weak density outside the canonical pocket, between TM5 and TM12)	cryo-EM structure of the complex (150 mM NaCl, canonical TM3/TM10 pocket, inward-facing)
O=C(O)C(=O)O [C2O4^2−]	weak densities outside the pocket	
Cl [Cl^−]		we identified a distinct density corresponding to the Cl^- ion in this cleft
